In patent US20160331662A1, “Compositions that Inhibit and Prevent the Formation of Dental Caries and Methods of Using the Same” (priority 2014, published 2016):

Experiments:
[1] = molecular target: T1, iSRCR1 (Homo sapiens, UniProt Q9UGM3); test: SPR binding of analytes to immobilized iSRCR1 (CM5 chip, 1:1 Langmuir); conditions: substance alone over CM5 chip
T1 construct: strongly proves that a single SRCR domain contains the adherence sites for AgI/II and SspB; made in house; host or cells: Drosophila expression system
Method: (§1) Real time binding analyses of the SRCR domains with AgI/II fragments were carried out using the BIAcore 2000 system. […] Self association of iSRCR1 or iSRCR123 (at 2 μM) were also determined in a similar manner as described above. Finally to determine the effect of calcium SPR analysis was carried out by dialyzing the analytes and ligands in binding buffer devoid of CaCl2.
(§2) In addition, the SRCR holding two distinct surfaces compounded the elucidation of individual kinetics, and presently there are no modeling protocols available to determine the individual affinities for such a system, therefore for simplicity we have utilized a single site 1:1 Langmuir model. All experiments were carried out in triplicates and the kinetics of the association (KA) and dissociation (KD) rate constants were deduced using the 1:1 Langmuir Kinetic model on the BIA-Evaluation software. The concentration (C in μM) of analyte (FL^AgI/II or FL^SspB at 2 μM) that adhered to the immobilized ligand (iSRCR1, iSRCR123) within the flow cell was calculated using the formula C=(RU/MW)×(1/V), where RU is resonance unit (1 RU=1 pg of bound protein), MW is molecular weight of analyte and V is volume of flow cell (1.2×10^−10 L).

[2] = molecular target: T2, iSRCR123 (Homo sapiens, UniProt Q9UGM3); test: SPR binding of analytes to immobilized iSRCR123 (CM5 chip, 1:1 Langmuir); conditions: substance alone over CM5 chip
T2 construct: multiple SRCR domains have better adherence capability compared to that of a single SRCR domain; made in house; host or cells: Drosophila expression system
Method: as §1, §2

[3] = tested on: S. gordonii DL1; test: Aggregation assay (OD700 over 60 min); assay type: cell-based
Method: (§3) Aggregation assays were performed as described earlier with slight modifications. Briefly, S. mutans UA159 and S. gordonii DL1 cells were grown in TSY broth media overnight at 37° C. in the presence of 5% CO2. The bacteria were centrifuged at 5000×g and washed with a buffer containing 20 mM HEPES pH 7.4, 150 mM NaCl and re-suspended to an approximate OD700 of 1. The bacterial suspension (900 μl) was mixed with 100 μl of SAG or iSRCR1 (10 μM) or iSRCR123 ([…]) or commercially synthesized (Think Peptides, Inc) SRCRP2 peptide with fluorescein amidite (FAM) at the carboxyl end ([…]-[FAM]) (SEQ ID NO:9, at both 400 μg/ml and 1 mg/ml) in the presence of 6 mM CaCl2 and aggregation was measured by recording OD700over 60 min at 5 min intervals, where the buffer alone was used as control. All experiments were carried out at least five times, and the results were analyzed with One-way ANOVA. Post-hoc testing where *, P<0.05 was considered statistically significant and results were presented as the percentage of cells aggregated.

[4] = tested on: S. mutans UA159; test: Aggregation assay (OD700 over 60 min); assay type: cell-based
Method: as §3

[5] = tested on: adhesion of AgI/II of S. mutans to iSRCR1; test: Adherence/inhibition SPR: AgI/II fragments on immobilized iSRCR1; assay type: binding; conditions: 0.005 mM peptide; 2 μM protein
Method: (§4) Carbohydrates Galβ1-3-GalNac and Mannose (identified from glycan profile analysis) at different concentrations (0.010, 0.050, 0.1, 0.5 and 1 mM) were incubated with 2 μM of each FL, A3VP1 and C123 of AgI/II and SspB and the interaction with immobilized iSRCR1 and iSRCR123 with running buffer containing 20 mM HEPES, 150 mM NaCl and 2.5 mM CaCl2, pH 7.4 at 25° C. and with flow rate of 20 μl/min was analyzed. Direct adherence of these carbohydrates alone served as the control and all calculations were carried out using the BIAevaluation software. Using the same protocol above at varying concentrations the effect of SRCRP2 peptide on the adherence inhibition was assessed.

[6] = molecular target: T3, adhesion of SspB of S. gordonii to iSRCR1 (Streptococcus gordonii, UniProt A8AUS1); assay type: binding; conditions: 0.005 mM peptide; 2 μM protein
T3 construct: made in house; host or cells: pET23d vector
Method: as §4

[7] = tested on: adhesion of AgI/II of S. mutans to iSRCR123; test: Adherence/inhibition SPR: AgI/II fragments on immobilized iSRCR123; assay type: binding; conditions: 0.005 mM peptide; 2 μM protein
Method: as §4

[8] = tested on: adhesion of SspB of S. gordonii to iSRCR123; test: Adherence/inhibition SPR: SspB fragments on immobilized iSRCR123; assay type: binding; conditions: 0.005 mM peptide; 2 μM protein
Method: as §4

[9] = molecular target: T4, AgI/II of S. mutans (Streptococcus mutans serotype c, UniProt P23504); test: ELISA binding of fluorescent tagged SRCRP2 peptide; conditions: FAM-labelled peptide
T4 construct: Recombinant full length (FL) constructs of surface proteins (homologs of AgI/II) AgI/II, SspB, Pas; made in house

[10] = molecular target: SspB of S. gordonii (Streptococcus gordonii, UniProt A8AUS1); conditions: FAM-labelled peptide
[11] = tested on: S. gordonii DL1; test: Flow cytometric analysis of iSRCR adherence to bacteria; assay type: cell-based; conditions: 10 μM, compared with S. mutans
Method: (§5) S. mutans UA159 and S. gordonii DL1 cells were grown overnight in TSY broth media at 37° C. and washed thoroughly with FACS buffer (20 mM HEPES pH 7.4, 150 mM NaCl and 5% non-fat dry milk) to reduce non-specific binding. Subsequently, 10 μM of iSRCR1 or iSRCR123 were added to 100 μl of cells (1×10^7 cells/ml) in binding buffer (FACS buffer+2.5 mM CaCl2) and incubated for 60 min at 37° C. The cells were later washed thoroughly with binding buffer to remove unbound iSRCRs. Subsequently, Anti-His tag Alexafluor 488 antibody (1:50 dilution) (EMD Millipore, Inc) that adheres to the His tag present on SRCRs was added to the cells and incubated for 30 min, washed three times and resuspended in 200 μl of binding buffer. Samples without iSRCRs served as control. Samples were then assayed using the FACScan machine (BD Biosciences) at the Analytical and Preparative Cytometry Facility (APCF) at UAB, and data obtained was analyzed using FlowJo 7.2.4 software.

[12] = tested on: S. mutans UA159; test: as above; assay type: cell-based; conditions: 10 μM
Method: as §5

[13] = tested on: S. mutans UA159; test: Confocal microscopy of iSRCR adherence to bacteria; assay type: cell-based; conditions: 10 μM
Method: S. mutans UA159 and S. gordonii DL1 were grown overnight in TSY (30 g/L of Trypticase soy broth and 0.5 g/L yeast extract, pH 7.2) media on an eight-well Lab Tek Chamber slide system (Sigma). The cells were fixed with 3% paraformaldehyde, washed with binding buffer (20 mM HEPES pH 7.4, 150 mM NaCl and 2.5 mM CaCl2), and thereafter iSRCR1 or iSRCR123 (10 μM) were added to the cells and incubated for 60 min. The unbound SRCRs were removed by repeated washing using the binding buffer. Subsequently, Alexa fluor 488 conjugated Anti-His-tag antibody (EMD Millipore, Inc) (1:50 dilution) that can bind to the His Tag on SRCRs was added. After 60 min incubation the unbound antibody was washed away thoroughly using binding buffer, and the chamber walls were gently removed. Cover slips were then mounted with 15 μl of fluoromount-G with DAPI (Southern Biotech Inc) to stain bacterial nuclei and were sealed until ready to be imaged. The experiment without SRCRs served as control. All slides were imaged using Leica SP1 UV Confocal Laser Scanning Microscope and Zeiss LSM 710 Confocal Laser Scanning Microscope at the UAB-High resolution imaging facility (UAB-HRIF).

[14] = Differential scanning calorimetry, thermostability of SRCRs with calcium; assay type: physicochemical; conditions: no added CaCl2
Method: The thermostability of SRCRs in the presence of calcium ions was analyzed using Microcal MC-II differential scanning calorimeter (GE HealthCare, USA) as described earlier. Briefly, iSRCR1 or iSRCR123 at concentration of 1 mg/ml was mixed and incubated with different concentration of CaCl2 ranging from (0-100 mM) to final volume of 400 μl of buffer containing 20 mM HEPES, 150 mM NaCl), and buffer without SRCRs served as control. Data were recorded with calorimetric scanning rates that ranged from 30° C./h to 90° C./hat 30 psi pressure. The data collected was analyzed for the unfolding temperature (Tt), and the calorimetric (ΔHcal) and van't Hoff (ΔHv) unfolding enthalpies using the Origin software package (MicroCal).

[15] = peptide at lower concentration (400 μg/ml)

T2 sequence (Q9UGM3 102-463 limits assumed): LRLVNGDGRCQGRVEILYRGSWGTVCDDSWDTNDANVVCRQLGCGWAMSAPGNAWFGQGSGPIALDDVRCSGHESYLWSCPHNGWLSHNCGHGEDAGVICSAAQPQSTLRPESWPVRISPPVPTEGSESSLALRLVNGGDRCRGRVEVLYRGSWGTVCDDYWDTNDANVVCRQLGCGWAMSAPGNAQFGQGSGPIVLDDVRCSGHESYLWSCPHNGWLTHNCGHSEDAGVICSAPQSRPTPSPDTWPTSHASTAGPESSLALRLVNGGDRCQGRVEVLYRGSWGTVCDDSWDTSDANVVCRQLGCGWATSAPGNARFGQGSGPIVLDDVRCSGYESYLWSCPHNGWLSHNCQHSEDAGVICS
T4 sequence (P23504 39-1562): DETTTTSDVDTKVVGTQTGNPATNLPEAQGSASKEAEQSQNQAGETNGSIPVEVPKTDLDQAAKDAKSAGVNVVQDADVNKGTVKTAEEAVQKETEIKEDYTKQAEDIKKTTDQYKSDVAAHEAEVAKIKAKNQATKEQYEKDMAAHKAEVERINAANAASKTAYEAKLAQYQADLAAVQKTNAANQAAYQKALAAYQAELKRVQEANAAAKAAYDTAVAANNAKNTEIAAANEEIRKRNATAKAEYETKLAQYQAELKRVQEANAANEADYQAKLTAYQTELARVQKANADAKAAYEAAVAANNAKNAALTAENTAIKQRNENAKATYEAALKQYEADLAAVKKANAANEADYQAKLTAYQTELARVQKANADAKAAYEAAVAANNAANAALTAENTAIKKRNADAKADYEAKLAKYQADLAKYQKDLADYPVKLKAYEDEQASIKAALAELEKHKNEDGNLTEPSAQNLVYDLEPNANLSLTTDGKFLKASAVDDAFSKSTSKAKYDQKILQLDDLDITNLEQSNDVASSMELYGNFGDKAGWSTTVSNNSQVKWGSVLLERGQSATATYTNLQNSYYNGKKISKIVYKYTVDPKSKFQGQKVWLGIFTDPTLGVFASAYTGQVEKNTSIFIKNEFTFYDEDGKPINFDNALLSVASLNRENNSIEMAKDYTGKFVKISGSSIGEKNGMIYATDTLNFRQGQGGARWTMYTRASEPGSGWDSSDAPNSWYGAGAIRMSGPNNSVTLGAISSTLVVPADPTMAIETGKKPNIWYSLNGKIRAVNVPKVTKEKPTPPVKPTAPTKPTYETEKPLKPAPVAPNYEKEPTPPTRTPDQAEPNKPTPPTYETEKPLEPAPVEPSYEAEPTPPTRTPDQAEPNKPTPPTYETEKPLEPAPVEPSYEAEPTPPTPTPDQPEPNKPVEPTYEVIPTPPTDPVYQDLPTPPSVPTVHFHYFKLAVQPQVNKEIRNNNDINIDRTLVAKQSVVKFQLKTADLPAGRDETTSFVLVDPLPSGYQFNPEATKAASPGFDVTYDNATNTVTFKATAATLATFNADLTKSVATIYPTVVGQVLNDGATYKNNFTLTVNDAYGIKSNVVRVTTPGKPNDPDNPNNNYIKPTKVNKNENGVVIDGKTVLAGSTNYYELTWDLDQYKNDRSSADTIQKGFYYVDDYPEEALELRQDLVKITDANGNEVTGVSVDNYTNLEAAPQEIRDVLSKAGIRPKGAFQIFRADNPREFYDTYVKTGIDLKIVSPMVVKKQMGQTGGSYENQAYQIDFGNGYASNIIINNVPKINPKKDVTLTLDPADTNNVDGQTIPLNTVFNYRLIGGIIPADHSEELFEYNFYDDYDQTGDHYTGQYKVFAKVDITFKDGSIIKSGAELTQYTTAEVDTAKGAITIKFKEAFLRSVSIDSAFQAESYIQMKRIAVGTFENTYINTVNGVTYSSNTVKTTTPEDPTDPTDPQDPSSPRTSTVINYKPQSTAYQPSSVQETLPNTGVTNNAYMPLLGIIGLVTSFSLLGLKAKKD
T1 sequence (Q9UGM3 102-202 limits assumed): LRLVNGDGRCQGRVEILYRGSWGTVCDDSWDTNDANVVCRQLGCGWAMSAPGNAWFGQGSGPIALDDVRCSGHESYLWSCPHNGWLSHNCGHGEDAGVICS
SspB of S. gordonii, sequence (A8AUS1 39-1433): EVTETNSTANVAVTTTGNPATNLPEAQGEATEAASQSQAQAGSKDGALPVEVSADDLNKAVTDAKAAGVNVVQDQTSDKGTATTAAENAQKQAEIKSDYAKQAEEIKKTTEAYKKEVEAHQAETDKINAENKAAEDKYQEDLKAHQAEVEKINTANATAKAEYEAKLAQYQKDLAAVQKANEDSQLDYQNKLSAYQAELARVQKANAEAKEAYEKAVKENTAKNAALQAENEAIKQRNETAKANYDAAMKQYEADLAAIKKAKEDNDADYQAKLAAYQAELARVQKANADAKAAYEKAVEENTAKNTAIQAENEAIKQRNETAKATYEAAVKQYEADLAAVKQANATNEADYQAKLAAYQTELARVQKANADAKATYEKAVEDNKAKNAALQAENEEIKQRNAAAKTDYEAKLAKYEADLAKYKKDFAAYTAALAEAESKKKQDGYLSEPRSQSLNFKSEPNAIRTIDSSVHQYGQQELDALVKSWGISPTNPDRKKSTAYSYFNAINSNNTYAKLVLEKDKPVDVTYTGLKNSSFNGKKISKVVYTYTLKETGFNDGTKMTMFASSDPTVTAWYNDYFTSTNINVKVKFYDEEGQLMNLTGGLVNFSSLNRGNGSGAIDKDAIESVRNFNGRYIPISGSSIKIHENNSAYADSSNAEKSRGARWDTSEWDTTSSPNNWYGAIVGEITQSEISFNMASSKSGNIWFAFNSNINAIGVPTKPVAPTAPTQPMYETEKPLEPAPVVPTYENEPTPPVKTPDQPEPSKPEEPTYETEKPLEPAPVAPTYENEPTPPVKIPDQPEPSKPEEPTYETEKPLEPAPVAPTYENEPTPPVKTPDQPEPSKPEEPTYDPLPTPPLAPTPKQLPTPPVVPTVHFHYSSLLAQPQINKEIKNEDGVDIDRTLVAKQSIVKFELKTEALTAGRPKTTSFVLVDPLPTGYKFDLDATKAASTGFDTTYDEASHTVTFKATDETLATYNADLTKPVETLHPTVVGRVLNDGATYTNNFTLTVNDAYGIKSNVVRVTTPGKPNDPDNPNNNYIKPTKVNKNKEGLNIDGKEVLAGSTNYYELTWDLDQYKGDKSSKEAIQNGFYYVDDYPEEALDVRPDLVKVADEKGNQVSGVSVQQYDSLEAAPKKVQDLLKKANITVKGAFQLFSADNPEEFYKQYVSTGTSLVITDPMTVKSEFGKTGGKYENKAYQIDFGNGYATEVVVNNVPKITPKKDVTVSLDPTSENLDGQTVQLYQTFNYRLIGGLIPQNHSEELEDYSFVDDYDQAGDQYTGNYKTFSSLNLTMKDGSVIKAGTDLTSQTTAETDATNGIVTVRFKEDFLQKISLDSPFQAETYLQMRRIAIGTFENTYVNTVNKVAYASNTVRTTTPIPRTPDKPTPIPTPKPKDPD

QGRVEVLYRGSWGTVC [SRCRP2 peptide, reference compound]
direct binding to immobilized iSRCR1 (in words) [1]: did not show any binding | direct binding to immobilized iSRCR123 (in words) [2]: did not show any binding | percentage of cells aggregated ([3]; peptide 1 mg/ml): 12% | percentage of cells aggregated [3, 15]: 11% | percentage of cells aggregated ([4]; peptide 1 mg/ml): 18% | percentage of cells aggregated [4, 15]: 12% | change in adherence of C123^AgI/II to iSRCR1 [5]: 2.3% | improvement of adherence of A3VP1^AgI/II to iSRCR1 [5]: 13% | improvement of adherence of FL^AgI/II to iSRCR1 [5]: 8% | change in adherence of A3VP1^SspB to iSRCR1 [6]: 3% | change in adherence of C123^SspB to iSRCR1 [6]: 4% | improvement of adherence of FL^SspB to iSRCR1 [6]: 97% | change in adherence of C123^AgI/II to iSRCR123 [7]: 7% | improvement of adherence of A3VP1^AgI/II to iSRCR123 [7]: 16% | improvement of adherence of FL^AgI/II to iSRCR123 [7]: 8% | change in adherence of A3VP1^SspB to iSRCR123 [8]: 3% | change in adherence of C123^SspB to iSRCR123 [8]: 5% | improvement of adherence of FL^SspB to iSRCR123 [8]: 91% | adherence to AgI/II and its subfragments by ELISA (in words) [9]: adheres well | adherence to SspB and its subfragments by ELISA (in words) [10]: adheres well

iSRCR1: recombinant single SRCR domain construct of Gp340 (15 kDa), Drosophila expression system
adherence by FACS (in words) [11]: lower adherence | increase in fluorescence intensity compared to the control [12]: 10 fold | binding to cells by confocal microscopy (in words) [13]: binding | percentage of cells aggregated ([3]; iSRCR 10 μM or SAG, 6 mM CaCl2): 13% | percentage of cells aggregated ([4]; iSRCR 10 μM or SAG, 6 mM CaCl2): 17% | Tm [14]: 56.5 °C
